The values below come from US7449290B2, “Method for selecting genetically transformed cells” (Expressive Research B.V., priority 2001, dated 2008).

Experiment [1] deals with Arabidopsis thaliana Col. O and La-er seedlings. Briefly: Sensitivity to trehalose of Arabidopsis thaliana seedlings (Col.O and La-er) on agar medium. The experiment is classed as in vivo. The following applies: 100 mM trehalose in 0.8% agar, half-strength MS medium, pH 5.7; compared with 100 mM mannitol control. Here is the method: Seeds were sterilized using the gas-phase protocol of Clough and Bent (1998) (Clough S. J., Bent A. F., Plant J. 16(6): 735-743, 199.8) in Eppendorf tubes. The sterilized sees were then resuspended in sterile water and arranged on 0.8% w/v agar medium containing half-strength Murashigue and Skoog medium (MS medium; Murashigue T, Skoog F, Physiol. Plant. 15: 473-497, 1977), vitamins and MES buffer (pH 5.7), supplemented with mannitol or trehalose in a final concentration of 100 mM. […] The upper row of plants are the Arabidopsis thaliana Landsberg erecta (La-er), and the lower row of plants are the Arabidopsis thaliana Colombia (Col.O).

Experiment [2] deals with non-transformed Arabidopsis thaliana Col.O seedlings. Briefly: Selection of transgenic Arabidopsis seedlings on trehalose medium. The experiment is classed as in vivo. The note with it: 100 mM trehalose, 1/2 MS agar, after 12 days at 22° C. Here is the method:
Arabidopsis thaliana Col.O plants were transformed with Aarobacterium with the binary plasmid as described in Example 2C, via the “floral dip” protocol (Clough and Bent, supra). The obtained dry seeds were sterilized and sown on 0.8% w/v solid agar medium having therein half-strength MS-salts (½ MS-salts), vitamins and MES buffer pH 5.7, supplemented with trehalose in a final concentration of 100 mM. The dishes were incubated for 3 days at 4° C. (stratification), whereafter a drop of ethanol was applied to the inside of the cover and dishes were transferred to 22° C. […] The transformed resistant seedlings are green, have long roots and primary leaves. […] In moist conditions the cotyledons become pale.

Take `OC[C@H]1O[C@H](O[C@H]2O[C@H](CO)[C@@H](O)[C@H](O)[C@H]2O)[C@H](O)[C@@H](O)[C@@H]1O` [trehalose, Trehalose]: the “development of plants from seeds (root system)” value in experiment [1] is given as “lesser development”. In experiment [2], the “phenotype of non-transformed, sensitive seedlings” value is listed as “accumulate anthocyanins, develop no primary leaves” and the “root length of non-transformed, sensitive seedlings” value is not above 3 mm.
